{"source": "patent US11260050B2", "about": "“Combination of cotinine plus antioxidant for treatment-resistant depression and correction of astrocytes functional deficit induced by depression and other neuropathological” (UNIVERSIDAD SAN SEBASTIAN, priority 2017, dated 2022)", "key": {"[1]": {"test_system": "mice subjected to fear conditioning", "assay": "Elevated plus maze after fear conditioning (Example 1, Experiment 3)", "assay_type": "in vivo, C57BL/6 mice", "details": "FC mice, IN post-treatment; Veh 68.14±5.573, N=5", "procedure": "Mice were treated via IN 2 hours after fear conditioning and continuously until euthanasia.\nMice (n=5-6/condition) received daily treatments with 1. PBS (phosphate buffer saline, pH 7.4) via intranasal (2×12 μl/nostril), 2. Cotinine dissolved in PBS via intranasal (Cot IN, 10 mg/ml, 2×12 μl/nostril); 3. Cotinine+krill oil both dissolved in PBS via intranasal (Cot IN, 10 mg/ml+KO, 48 mg/ml, 2×12 μl/nostril).\nContextual FC was performed as described. The conditioning chamber used is surrounded by a sound-attenuating box with a camera connected to freeze frame software (MED Associates Inc.), also equipped to provide a background white noise (72 dB). The conditioning chamber (33 cm×20 cm×22 cm) contains in one side a speaker and in the opposite slide has a 24V light. The chamber has a 36-bar insulated shock grid floor. Mice were placed in the conditioning chamber for 2 min before the onset of a discrete tone (a sound that will last 30 seconds (sec) at 2,800 Hz and 85 dB). In the last two seconds of this tone, mice received a foot shock of 1 mA and kept in the conditioning chamber for 2 min and then returned to their cages. Between trials, the chamber was sanitized with 70% ethanol and dried. Freezing behavior that is defined as the absence of all movement except the one needed for breathing was assessed using the FreezeView Software (MED Associates Inc.). […]"}, "restrained mice": {"test_system": "restrained mice", "assay": "Open field test after chronic restraint stress (Example 2)", "assay_type": "in vivo, C57BL/6 male mice", "details": "IN cotinine 24 μl of 10 mg/ml daily, RS+PBS 61±19 m", "procedure": "Mice between 2-3 months of age after one week of acclimatization were randomly divided into two groups. Stressed mice were subjected to restraint stress. Control (non-restrained) mice were allowed to move freely during this period. After the stress exposure period, mice were divided into three experimental groups: 1) Non-restrained mice treated with vehicle (PBS, pH 7.4) serving as unstressed controls (n=8); 2) Restrained mice (RS) treated with vehicle (n=8); 3), RS mice treated with 24 μl of a cotinine solution (10 mg/ml in PBS, pH 7.4) via intranasal route of administration (n=6). Treatments were administered daily until euthanasia. After two weeks of treatments mice were behaviorally tested and euthanized (FIG. 10) Intranasal delivery was performed as previously described (Hanson and Frey, 2007). Mice at 2-3 months of age were hand-restrained, positioned in a supine position, and administered two 12 μl drops of cotinine solution (10 mg/ml in PBS), or PBS alone, into both nares. […] Mice were individually placed in an uncovered square arena (40 cm×40 cm×35 cm), allowed to freely explore for 30 minutes (min) while monitored with a video tracking software (ANY-Maze®, Stoelting Co., Illinois, USA) under moderate lighting. Several parameters including total distance traveled, speed, and time spent in the center and peripheral zones (20 cm×20 cm) were measured to assess locomotor activity."}, "GFAP+ astrocytes": {"test_system": "GFAP+ astrocytes", "assay": "Morphology and fractal analysis of GFAP+ cells in the hippocampus (Example 2)", "assay_type": "in vivo, C57BL/6 male mice", "procedure": "For the IR analysis, for each mouse, three digital images were randomly selected at 40× magnifications in the areas of interest (hippocampus and frontal cortex) (n=5-6/condition). The images were taken using a digital camera attached to a light microscope (Micrometrics, MilesCo Scientific, Princeton, Minn., USA) connected to a camera operated by a commercial software (Micrometrics SE Premium). The determination of the area of the immunolabeling was calculated delimiting the IR areas using the ImageJ software (National Institute of Health, Bethesda, […]., USA). For all analyses, GFAP^+ astrocytes were selected randomly from the frontal cortex and the CA1, CA3 and dentate gyrus regions of the hippocampus and quantified. Using a digital camera on an inverted microscope, black and white images of GFAP^+ astrocytes were obtained and processed with Image J software. Using a 20× objective, cells were chosen randomly in the same area selected for immunostaining, and the binary overlay of a cell was created by thresholding. For all images, a threshold value was established at the level at which the binary overlay entirely enclosed the cell body and projections. All pixels above the threshold value were considered as belonging to the cell images. Finally, the binary silhouette of the whole cell was reduced to its one-pixel outline for estimation of the fractal dimensions with the FracLac 2.5 ImageJ plug-in (Karperien et al., 2013; Karperien and Jelinek, 2015)\nFractal analysis was done on binary images by means of the dilation method (Schaffner and Ghesquiere, 2001). The slope of the regression line (S) is related to the fractal dimension (D) by D=1−S. Each pixel in the cell outline was replaced with a disk of a diameter fluctuating from 3-61 pixels and the area of the widened outline divided by the diameter of structuring element was plotted against this diameter on a log-log scale.\nthe area of the cell body that is calculated as the two-dimensional cross-sectional area contained within the boundary of the cell body.\nThe area of the convex polygon formed by connecting the tips of the longest astrocytic processes (convex hull area). Convex hull values indicate the size of the branching field of the astrocyte. The amount of physical space is defined in terms of convex-hull volume, surface area, area, and or perimeter.\nMeasures heterogeneity and complements fractal dimension analysis in describing structural complexity (Karperien et al., 2013; Karperien and Jelinek, 2015; Schaffner and Ghesquiere, 2001)."}, "[2]": {"details": "cotinine-treated restrained mice"}}, "data": [{"smiles": "CN1C(=O)CC[C@H]1c1cccnc1", "note": "[Cotinine, (5S)-1-methyl-5-(3-pyridyl) pyrrolidin-2-one]", "values": [{"measurement": "time spent in the open arms (EPM)", "setting": "[1]", "result": "increase in the time spent in the open arms but the difference did not reached significance"}, {"measurement": "distance traveled in the OF test", "setting": "restrained mice", "result": "49±13", "unit": "m"}, {"measurement": "GFAP+ cell area across CA1, CA3 and DG", "setting": "GFAP+ astrocytes; [2]", "result": "statistically indistinguishable from nonstressed controls"}, {"measurement": "appearance of GFAP+ astrocytes in hippocampi and frontal cortices", "setting": "GFAP+ astrocytes; [2]", "result": "large GFAP^+ cells with longer and more complex arborization"}, {"measurement": "arbor area of astrocytes, DG", "setting": "GFAP+ astrocytes; p<0.001 vs vehicle-treated restrained mice", "result": "greater astrocytic arborization than vehicle-treated, restrained mice"}, {"measurement": "fractal dimension (FD) of astrocytes, DG", "setting": "GFAP+ astrocytes; p<0.05", "result": "vehicle-treated, restrained mice had a significant reduction in FD of astrocytes in the DG when compared to cotinine-treated, restrained mice"}, {"measurement": "lacunarity of astrocytes, DG", "setting": "GFAP+ astrocytes; p<0.05", "result": "vehicle-treated, restrained mice had reduced lacunarity of astrocytes relative to both their cotinine-treated, stressed"}, {"measurement": "arbor area of astrocytes, CA3", "setting": "GFAP+ astrocytes; p<0.05 vs non-stressed controls, p<0.01 vs vehicle-treated restrained", "result": "significantly more arbor area of astrocytes than non-stressed controls"}, {"measurement": "arbor area of astrocytes, CA1", "setting": "GFAP+ astrocytes; p<0.05 vs non-stressed controls, p=0.075 vs vehicle-treated stressed", "result": "significantly more arbor area than the non-stressed controls"}]}]}
